Data: patent US6461807B1, “Methods for drug target screening” (priority 1997, dated 2002)

What was measured:
[1] = system: S. cerevisiae wild-type and cna, cph1, fpr1 deletion strains; assay: Transcript array comparison of drug-exposed wild-type and deletion mutant yeast, microarray with approximately 5900 ORFs; assay type: cell-based, Saccharomyces cerevisiae
Experimental: (§1) The RNA was converted into cDNA while simultaneously incorporating fluorescent nucleotides, according to standard protocols as described above. The cDNAs were hybridized to either a microarray having 140 sites with relevant S. cerevisiae ORF sequences, or to a microarray having sites with 5900 sites with nearly all known S. cerevisiae ORF sequences. The intensities of the two fluors used to label the RNAs to be compared were measured at each site of the array. The ratio of these intensities is referred to as the expression ratio.
(§2) To produce deletion mutant transcript arrays, RNA was prepared from a publicly available S. cerevisiae strain that contains genetic disruptions in both catalytic subunits of calcineurin (hereinafter, the cna mutant) and its isogeneic with the parental wild-type strain. These two strains were grown in parallel, harvested and processed in an identical manner as described above. As above, the cDNAs were hybridized to the array and the intensities of the two fluors (expression ratio) were measured at each site of the array. Thereby a cna mutant transcript array was produced.
(§3) Selected pairs of the transcript arrays were compared by computing a correlation coefficient between the pairs as previously described. As is known in the art, higher values of the correlation coefficient represent a greater degree of similarity between the pair of arrays. As indicated subsequently, in some cases expression ratios were directly used for this computation, while in other cases the log10 function of the expression ratios were used.
In this table, columns two and three list the transcript arrays that are compared (labeled “First Transcript Array” and “Second Transcript Array”). Their correlation coefficient is presented in the fourth column (labeled “Corr. Coef.”). The number of standard deviations represented by the correlation coefficient (in terms of the expected correlation coefficient representing one Gaussian standard deviation) is presented in the fifth column (labeled “Std. Dev.”). The expected standard deviation depends on the data set size according to known statistical procedures. The number of standard deviations above the expected mean can be used to determine the statistical significance of the correlation coefficient, as is known in the art.
The transcript arrays measured in Tables 1 and 2 were similarly produced by the previously described methods.

[2] = system: S. cerevisiae wild-type and cna, cph1, fpr1 deletion strains; assay: Transcript array comparison of drug-exposed wild-type and deletion mutant yeast, microarray with 140 selected ORF sites; assay type: cell-based, Saccharomyces cerevisiae; conditions: Table 3, 140 ORF sites
Experimental: as §1, §2
Deletion mutant transcript arrays were also produced in similar manners for disruptions to the genes cph1 (coding the major cyclophilin in yeast) and fpr1 (coding the major FK506-binding protein).
as §3
This table, in contrast to Table 1 and 2 (which were created from microarrays with approximately 5900 ORF sites) was created from microarray having sites with 140 S. cerevisiae selected ORF sites thought to be relevant to the primary action of these drugs. Correlation coefficients were computed using log10 of the raw expression ratios.

[3] = Table 1, log10 of expression ratios, 1 mg/ml FK506 or 30 mg/ml CSA

**Q.** What does the source list for `C=CC[C@@H]1/C=C(\C)C[C@H](C)C[C@H](OC)[C@H]2O[C@@](O)(C(=O)C(=O)N3CCCC[C@H]3C(=O)O[C@H](/C(C)=C/[C@@H]3CC[C@@H](O)[C@H](OC)C3)[C@H](C)[C@@H](O)CC1=O)[C@H](C)C[C@@H]2OC` [FK506]?
**A.** Corr. Coef., wild-type drug transcript array vs fpr1 mutant transcript array ([1]; Table 1, log10 of expression ratios, 1 mg/ml FK506): −0.011; Corr. Coef., wild-type FK506 drug transcript array vs wild-type CSA drug transcript array ([1]; Table 1, log10 of expression ratios, 1 mg/ml FK506, 30 mg/ml CSA, three generations): 0.334; Corr. Coef., wild-type drug transcript array vs cna mutant drug transcript array (same drug) [1, 3]: 0.065; Corr. Coef., wild-type drug transcript array vs cna mutant transcript array [1, 3]: 0.605; Corr. Coef., wild-type drug transcript array vs cph1 mutant drug transcript array (same drug) [1, 3]: 0.767; Corr. Coef., wild-type drug transcript array vs fpr1 mutant drug transcript array (same drug) [1, 3]: −0.085; Corr. Coef., wild-type FK506 drug transcript array vs cna mutant FK506 drug transcript array ([1]; Table 2): 0.052; Corr. Coef., wild-type FK506 drug transcript array vs cna mutant transcript array ([1]; Table 2): 0.245; Corr. Coef., wild-type FK506 drug transcript array vs cph1 mutant FK506 drug transcript array ([1]; Table 2): 0.328; Corr. Coef., wild-type FK506 drug transcript array vs fpr1 mutant FK506 drug transcript array ([1]; Table 2): 0.136; Corr. Coef., wild-type FK506 drug transcript array vs wild-type CSA drug transcript array ([1]; Table 2): 0.243; Corr. Coef., cna mutant FK506 drug transcript array vs cna mutant CSA drug transcript array [2]: 0.20; Corr. Coef., cph1 mutant FK506 drug transcript array vs cph1 mutant CSA drug transcript array [2]: 0.15; Corr. Coef., cph1 mutant FK506 drug transcript array vs fpr1 mutant CSA drug transcript array [2]: 0.71; Corr. Coef., fpr1 mutant FK506 drug transcript array vs cph1 mutant CSA drug transcript array [2]: 0.40; Corr. Coef., fpr1 mutant FK506 drug transcript array vs fpr1 mutant CSA drug transcript array [2]: −0.01; Corr. Coef., wild-type FK506 drug transcript array vs wild-type CSA drug transcript array ([2]; log10 of raw expression ratios): 0.67; Corr. Coef., wild-type drug transcript array vs cna mutant drug transcript array (same drug) ([2]; log10 of raw expression ratios): −0.12; Corr. Coef., wild-type drug transcript array vs cna mutant transcript array ([2]; log10 of raw expression ratios): 0.61; Corr. Coef., wild-type drug transcript array vs cph1 mutant drug transcript array (same drug) ([2]; log10 of raw expression ratios): 0.70; Corr. Coef., wild-type drug transcript array vs fpr1 mutant drug transcript array (same drug) ([2]; log10 of raw expression ratios): 0.04; Corr. Coef., wild-type vs wild-type transcript array vs wild-type drug transcript array ([2]; negative control comparison): −0.05
